Reference: PubChem BioAssay (NCI)
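These data come from cells grown in 96-well plates and exposed to compound for 48 hours at five concentrations. At the GI50, growth is halved. The concentration for full growth arrest is given as TGI.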 *1 amine or outer side, *2 acyl side, *3 side chain or, on linkers, in order; H or OH if unused. Where a SMILES comes first, the peptide text is derived from it. Bridges are numbered along the chain shown (N, C = ends). [ ]: non-standard residue; d: D form. The star is where a group is joined. ξ: configuration not given here. Phe(3,5-F2) = N[C@@H](Cc1cc(F)cc(F)c1)C(=O)O; ξThr(3S) = C[C@H](O[*:3])C(N[*:1])C(=O)[*:2]; X25 = C[C@H]1OCCN([*:1])[C@@H]1C(=O)[*:2]; Pro(4R-Me) = C[C@H]1CN[C@H](C(=O)O)C1; X24 = O=S(=O)(F)Oc1ccc(N*)cc1; CO = O=C([*:1])[*:2]

Columns and labels:
Test in all cases: NCI tumour cell line growth inhibition, 48 h
786-0 renal = system: 786-0 renal
A498 renal = system: A498 renal
A549 NSCLC = system: A549 NSCLC
ACHN renal = system: ACHN renal
BT-549 breast = system: BT-549 breast
CAKI-1 renal = system: CAKI-1 renal
CCRF-CEM leukemia = system: CCRF-CEM leukemia
COLO 205 colon = system: COLO 205 colon
DU-145 prostate = system: DU-145 prostate
EKVX NSCLC = system: EKVX NSCLC
HCC-2998 colon = system: HCC-2998 colon
HCT-116 colon = system: HCT-116 colon
HCT-15 colon = system: HCT-15 colon
HL-60(TB) leukemia = system: HL-60(TB) leukemia
HOP-62 NSCLC = system: HOP-62 NSCLC
HOP-92 NSCLC = system: HOP-92 NSCLC
HS 578T breast = system: HS 578T breast
HT29 colon = system: HT29 colon
IGROV1 ovarian = system: IGROV1 ovarian
K-562 leukemia = system: K-562 leukemia
KM12 colon = system: KM12 colon
LOX IMVI melanoma = system: LOX IMVI melanoma
M14 melanoma = system: M14 melanoma
MALME-3M melanoma = system: MALME-3M melanoma
MCF7 breast = system: MCF7 breast
MDA-MB-231 breast = system: MDA-MB-231 breast
MDA-MB-435 = system: MDA-MB-435
MOLT-4 leukemia = system: MOLT-4 leukemia
NCI-H226 lung = system: NCI-H226 lung
NCI-H460 lung = system: NCI-H460 lung
NCI-H522 lung = system: NCI-H522 lung
NCI/ADR-RES ovarian = system: NCI/ADR-RES ovarian
OVCAR-3 ovarian = system: OVCAR-3 ovarian
OVCAR-4 ovarian = system: OVCAR-4 ovarian
OVCAR-5 ovarian = system: OVCAR-5 ovarian
OVCAR-8 ovarian = system: OVCAR-8 ovarian
PC-3 prostate = system: PC-3 prostate
RPMI-8226 leukemia = system: RPMI-8226 leukemia
RXF 393 renal = system: RXF 393 renal
SF-268 CNS = system: SF-268 CNS
SF-295 CNS = system: SF-295 CNS
SF-539 CNS = system: SF-539 CNS
SK-MEL-2 melanoma = system: SK-MEL-2 melanoma
SK-MEL-28 melanoma = system: SK-MEL-28 melanoma
SK-MEL-5 melanoma = system: SK-MEL-5 melanoma
SK-OV-3 ovarian = system: SK-OV-3 ovarian
SN12C renal = system: SN12C renal
SNB-19 CNS = system: SNB-19 CNS
SNB-75 CNS = system: SNB-75 CNS
SR leukemia = system: SR leukemia
SW-620 colon = system: SW-620 colon
T-47D breast = system: T-47D breast
TK-10 renal = system: TK-10 renal
U251 CNS = system: U251 CNS
UACC-257 melanoma = system: UACC-257 melanoma
UACC-62 melanoma = system: UACC-62 melanoma
UO-31 renal = system: UO-31 renal

In the case of `C[C@@H]1C[C@H]2C(=O)O[C@@H](C)C(NC(=O)[C@H](Cc3cc(F)cc(F)c3)NC(=O)Nc3ccc(OS(=O)(=O)F)cc3)C(=O)N3CCC[C@H]3C(=O)N3CCO[C@H](C)[C@H]3C(=O)N[C@@H](CO)C(=O)N2C1` (stereo partly drawn) ({X24-CO}-[Phe(3,5-F2)][ξThr(3S)]P[X25]S[Pro(4R-Me)]; ester 2-C), the GI50 (786-0 renal) is reported as 4.54 µM, the TGI (786-0 renal) is reported as > 100 µM and the GI50 (A498 renal) is reported as 3.05 µM. The TGI (A498 renal) was 69.4 µM, the GI50 (A549 NSCLC) was 4.63 µM and the TGI (A549 NSCLC) was > 100 µM. It also gave a GI50 (ACHN renal) of 10.1 µM, a TGI (ACHN renal) of 35.3 µM and a GI50 (BT-549 breast) of 0.853 µM. It also gave a TGI (BT-549 breast) of 24.8 µM, a GI50 (CAKI-1 renal) of 2.79 µM and a TGI (CAKI-1 renal) of 34.8 µM. For the same compound, the GI50 (CCRF-CEM leukemia) was 0.591 µM, the TGI (CCRF-CEM leukemia) was > 100 µM and the GI50 (COLO 205 colon) was 0.683 µM. The TGI (COLO 205 colon) was 3.17 µM, the GI50 (DU-145 prostate) was 3.48 µM and the TGI (DU-145 prostate) was > 100 µM. The GI50 (EKVX NSCLC) was 3.2 µM, the TGI (EKVX NSCLC) was > 100 µM and the GI50 (HCC-2998 colon) was 1.33 µM. The TGI (HCC-2998 colon) was 18.7 µM, the GI50 (HCT-116 colon) was 0.452 µM and the TGI (HCT-116 colon) was 14.3 µM. The GI50 (HCT-15 colon) was 15.3 µM, the TGI (HCT-15 colon) was > 100 µM and the GI50 (HL-60(TB) leukemia) was 0.335 µM. For the same compound, the TGI (HL-60(TB) leukemia) was 3.18 µM, the GI50 (HOP-62 NSCLC) was 2.81 µM and the TGI (HOP-62 NSCLC) was > 100 µM. For the same compound, the GI50 (HOP-92 NSCLC) was 0.927 µM, the TGI (HOP-92 NSCLC) was 7.57 µM and the GI50 (HS 578T breast) was 0.916 µM. For the same compound, the TGI (HS 578T breast) was > 100 µM, the GI50 (HT29 colon) was 2.69 µM and the TGI (HT29 colon) was 18.6 µM. For the same compound, the GI50 (IGROV1 ovarian) was 2.67 µM, the TGI (IGROV1 ovarian) was > 100 µM and the GI50 (K-562 leukemia) was 0.482 µM. The TGI (K-562 leukemia) was > 100 µM, the GI50 (KM12 colon) was 4.39 µM and the TGI (KM12 colon) was > 100 µM. For the same compound, the GI50 (LOX IMVI melanoma) was 1.41 µM, the TGI (LOX IMVI melanoma) was > 100 µM and the GI50 (M14 melanoma) was 2.76 µM. The TGI (M14 melanoma) was 22.4 µM, the GI50 (MALME-3M melanoma) was 3.23 µM and the TGI (MALME-3M melanoma) was 45.2 µM. The GI50 (MCF7 breast) was 0.454 µM, the TGI (MCF7 breast) was 64.7 µM and the GI50 (MDA-MB-231 breast) was 0.642 µM. The TGI (MDA-MB-231 breast) was 20.4 µM, the GI50 (MDA-MB-435) was 0.589 µM and the TGI (MDA-MB-435) was 62 µM. It also gave a GI50 (MOLT-4 leukemia) of 2.12 µM, a TGI (MOLT-4 leukemia) of 29.6 µM and a GI50 (NCI-H226 lung) of 2.3 µM. For the same compound, the TGI (NCI-H226 lung) was 9.41 µM, the GI50 (NCI-H460 lung) was 2.39 µM and the TGI (NCI-H460 lung) was > 100 µM. The GI50 (NCI-H522 lung) was 0.497 µM, the TGI (NCI-H522 lung) was 9.3 µM and the GI50 (NCI/ADR-RES ovarian) was > 100 µM. The TGI (NCI/ADR-RES ovarian) was > 100 µM, the GI50 (OVCAR-3 ovarian) was 0.622 µM and the TGI (OVCAR-3 ovarian) was 23.7 µM. For the same compound, the GI50 (OVCAR-4 ovarian) was 2.38 µM, the TGI (OVCAR-4 ovarian) was > 100 µM and the GI50 (OVCAR-5 ovarian) was 3.58 µM. The TGI (OVCAR-5 ovarian) was 26.8 µM, the GI50 (OVCAR-8 ovarian) was 2.66 µM and the TGI (OVCAR-8 ovarian) was > 100 µM. For the same compound, the GI50 (PC-3 prostate) was 1.01 µM, the TGI (PC-3 prostate) was > 100 µM and the GI50 (RPMI-8226 leukemia) was 0.346 µM. For the same compound, the TGI (RPMI-8226 leukemia) was 2.36 µM, the GI50 (RXF 393 renal) was 3.16 µM and the TGI (RXF 393 renal) was 37.2 µM. For the same compound, the GI50 (SF-268 CNS) was 1.33 µM, the TGI (SF-268 CNS) was > 100 µM and the GI50 (SF-295 CNS) was 3.27 µM. For the same compound, the TGI (SF-295 CNS) was 13.1 µM, the GI50 (SF-539 CNS) was 2.44 µM and the TGI (SF-539 CNS) was > 100 µM. The GI50 (SK-MEL-2 melanoma) was 0.419 µM, the TGI (SK-MEL-2 melanoma) was 3.59 µM and the GI50 (SK-MEL-28 melanoma) was 2.3 µM. For the same compound, the TGI (SK-MEL-28 melanoma) was > 100 µM, the GI50 (SK-MEL-5 melanoma) was 3.09 µM and the TGI (SK-MEL-5 melanoma) was 11.6 µM. It also gave a GI50 (SK-OV-3 ovarian) of 2.49 µM, a TGI (SK-OV-3 ovarian) of 8.45 µM and a GI50 (SN12C renal) of 1.36 µM. The TGI (SN12C renal) was > 100 µM, the GI50 (SNB-19 CNS) was 0.598 µM and the TGI (SNB-19 CNS) was > 100 µM. The GI50 (SNB-75 CNS) was 0.53 µM, the TGI (SNB-75 CNS) was 7.46 µM and the GI50 (SR leukemia) was 1.64 µM. The TGI (SR leukemia) was 29.1 µM, the GI50 (SW-620 colon) was 1.61 µM and the TGI (SW-620 colon) was > 100 µM. For the same compound, the GI50 (T-47D breast) was 0.633 µM, the TGI (T-47D breast) was > 100 µM and the GI50 (TK-10 renal) was 6.22 µM. The TGI (TK-10 renal) was > 100 µM, the GI50 (U251 CNS) was 0.769 µM and the TGI (U251 CNS) was > 100 µM. It also gave a GI50 (UACC-257 melanoma) of 1.51 µM, a TGI (UACC-257 melanoma) of 8.97 µM and a GI50 (UACC-62 melanoma) of 1.75 µM. The TGI (UACC-62 melanoma) was 64.7 µM, the GI50 (UO-31 renal) was 23.7 µM and the TGI (UO-31 renal) was > 100 µM.
